Here are results for 17 compounds from ChEMBL document CHEMBL1153210, “Synthesis, spectral analysis and in vitro microbiological evaluation of 3-(3-alkyl-2,6-diarylpiperin-4-ylidene)-2-thioxoimidazolidin-4-ones as a new class of antibacterial and antifungal agents” (2010).

Converted amounts (≈) assume the structure as drawn. The source made the active and inactive calls. The rule behind the calls is not given here.

For test [1], the system named is Staphylococcus aureus. Briefly: Antibacterial activity against Staphylococcus aureus after 24 hrs by twofold serial dilution method. The format is functional.
In a further test the test system is Streptococcus. Description: Antibacterial activity against beta-Hemolytic streptococcus after 24 hrs by twofold serial dilution method. The format is functional.
For a further test, the system named is Vibrio cholerae. Description: Antibacterial activity against Vibrio cholerae after 24 hrs by twofold serial dilution method. The format is functional.
Another test relates to Pseudomonas aeruginosa. Description: Antibacterial activity against Pseudomonas aeruginosa after 24 hrs by twofold serial dilution method. In kind it is functional.
In test [2] the test system is Aspergillus flavus. Briefly: Antifungal activity against Aspergillus flavus after 72 to 96 hrs by twofold serial dilution method. In kind it is functional.
For a further test, the system named is Candida albicans. Description: Antifungal activity against Candida albicans after 72 to 96 hrs by twofold serial dilution method. The format is functional.
In test [3] the test system is Candida. Description: Antifungal activity against Candida 6 after 72 to 96 hrs by twofold serial dilution method. In kind it is functional.
Test [4] relates to Candida. Briefly: Antifungal activity against Candida 51 after 72 to 96 hrs by twofold serial dilution method. In kind it is functional.
In test [5] the test system is Escherichia coli. Briefly: Antibacterial activity against Escherichia coli at 200 ug/ml after 24 hrs by twofold serial dilution method. In kind it is functional, organism-based.
Test [6] relates to Escherichia coli. Briefly: Antibacterial activity against Escherichia coli after 24 hrs by twofold serial dilution method. The format is functional.
Test [7] concerns Staphylococcus aureus. Description: Antibacterial activity against Staphylococcus aureus at 200 ug/ml after 24 hrs by twofold serial dilution method. In kind it is functional, organism-based.
For test [8], the system named is Candida. Description: Antifungal activity against Candida 51 at 200 ug/ml after 72 to 96 hrs by twofold serial dilution method. The format is functional, organism-based.
In test [9] the test system is Aspergillus flavus. Briefly: Antifungal activity against Aspergillus flavus at 200 ug/ml after 72 to 96 hrs by twofold serial dilution method. In kind it is functional, organism-based.

Take `COc1ccc(C2C/C(=N\N3C(=O)CNC3=S)C(C)(C)C(c3ccc(OC)cc3)N2)cc1` (configuration not stated): the MIC stood at 200 mg/L (≈ 442 µM) against Staphylococcus aureus [1]; 50 mg/L (≈ 110 µM) in the test with Streptococcus; 50 mg/L (≈ 110 µM) in the test with Vibrio cholerae; 50 mg/L (≈ 110 µM) against Pseudomonas aeruginosa; 6.25 mg/L (≈ 13.8 µM) against Aspergillus flavus [2]; 12.5 mg/L (≈ 27.6 µM) in the test with Candida albicans. Besides, the MIC against Candida [3] stood at 25 mg/L (≈ 55.2 µM); against Candida [4], 6.25 mg/L (≈ 13.8 µM). In addition, in the test with Escherichia coli [5], the MIC result was “inactive”.

With `OC(Cn1cncn1)(Cn1cncn1)c1ccc(F)cc1F` [FLUCONAZOLE], the MIC against Aspergillus flavus [2] was determined as 50 mg/L (≈ 163 µM); in the test with Candida albicans, 50 mg/L (≈ 163 µM); against Candida [3], 25 mg/L (≈ 81.6 µM); in the test with Candida [4] it was 25 mg/L (≈ 81.6 µM).

Regarding `O=C1CNC(=S)N1N=C1CC(c2ccc(F)cc2)NC(c2ccc(F)cc2)C1` (configuration not stated), the MIC in the test on Staphylococcus aureus [1] was found to be 50 mg/L (≈ 125 µM); against Streptococcus, 6.25 mg/L (≈ 15.6 µM); in the test on Vibrio cholerae it was 6.25 mg/L (≈ 15.6 µM); in the test with Escherichia coli [6] it was 12.5 mg/L (≈ 31.2 µM); against Pseudomonas aeruginosa, 6.25 mg/L (≈ 15.6 µM); in the test on Aspergillus flavus [2], 12.5 mg/L (≈ 31.2 µM). Moreover, the MIC against Candida albicans, against Candida [3] and with Candida [4] was 50 mg/L (≈ 125 µM) each time.

Regarding `O=C(O)c1cn(C2CC2)c2cc(N3CCNCC3)c(F)cc2c1=O` [CIPROFLOXACIN], the figures for the MIC against Streptococcus, against Vibrio cholerae and with Escherichia coli [6] were 50 mg/L (≈ 151 µM), 50 mg/L (≈ 151 µM) and 25 mg/L (≈ 75.4 µM), respectively.

As for `CC1(C)/C(=N/N2C(=O)CNC2=S)CC(c2ccc(F)cc2)NC1c1ccc(F)cc1` (configuration not stated), the MIC in the test with Staphylococcus aureus [1] came out at 12.5 mg/L (≈ 29.2 µM); with Streptococcus, 6.25 mg/L (≈ 14.6 µM); in the test with Vibrio cholerae, 6.25 mg/L (≈ 14.6 µM); against Escherichia coli [6] it was 6.25 mg/L (≈ 14.6 µM); against Pseudomonas aeruginosa, 6.25 mg/L (≈ 14.6 µM); in the test on Aspergillus flavus [2], 25 mg/L (≈ 58.3 µM). Besides, the MIC against Candida albicans, against Candida [3] and in the test with Candida [4] was 50 mg/L (≈ 117 µM) in each case.

For `O=C1CNC(=S)N1N=C1CC(c2ccccc2)NC(c2ccccc2)C1` (configuration not stated), the MIC against Staphylococcus aureus [1] worked out at 100 mg/L (≈ 274 µM); with Streptococcus, 50 mg/L (≈ 137 µM); against Vibrio cholerae it was 50 mg/L (≈ 137 µM); in the test on Escherichia coli [6] it was 50 mg/L (≈ 137 µM); against Pseudomonas aeruginosa it was 50 mg/L (≈ 137 µM); against Aspergillus flavus [2], 12.5 mg/L (≈ 34.3 µM). Besides, the figures for the MIC with Candida albicans, against Candida [3] and with Candida [4] were 12.5 mg/L (≈ 34.3 µM), 50 mg/L (≈ 137 µM) and 100 mg/L (≈ 274 µM), respectively.

For `O=C1CNC(=S)N1N=C1CC(c2ccc(Cl)cc2)NC(c2ccc(Cl)cc2)C1` (configuration not stated), the MIC against Staphylococcus aureus [1] was 50 mg/L (≈ 115 µM); in the test on Streptococcus, 6.25 mg/L (≈ 14.4 µM); with Vibrio cholerae, 6.25 mg/L (≈ 14.4 µM); against Escherichia coli [6], 12.5 mg/L (≈ 28.8 µM); against Pseudomonas aeruginosa, 6.25 mg/L (≈ 14.4 µM); with Aspergillus flavus [2], 50 mg/L (≈ 115 µM). For the same compound, the MIC in the test with Candida albicans came out at 50 mg/L (≈ 115 µM); in the test with Candida [3] it was 12.5 mg/L (≈ 28.8 µM); against Candida [4], 25 mg/L (≈ 57.7 µM).

With `Cc1ccc(C2CC(=NN3C(=O)CNC3=S)CC(c3ccc(C)cc3)N2)cc1` (configuration not stated), the MIC stood at 100 mg/L (≈ 255 µM) in the test with Streptococcus; 100 mg/L (≈ 255 µM) in the test with Vibrio cholerae; 200 mg/L (≈ 510 µM) with Escherichia coli [6]; 25 mg/L (≈ 63.7 µM) with Pseudomonas aeruginosa; 6.25 mg/L (≈ 15.9 µM) in the test on Aspergillus flavus [2]; 12.5 mg/L (≈ 31.8 µM) against Candida albicans. The MIC in the test with Candida [3] and against Candida [4] was 6.25 mg/L (≈ 15.9 µM) in each case. In the test with Staphylococcus aureus [7], the MIC result was “inactive”.

As for `CC1/C(=N/N2C(=O)CNC2=S)CC(c2ccc(F)cc2)NC1c1ccc(F)cc1` (configuration not stated), the MIC against Staphylococcus aureus [1] was 6.25 mg/L (≈ 15.1 µM); with Streptococcus, 12.5 mg/L (≈ 30.2 µM); against Vibrio cholerae, 12.5 mg/L (≈ 30.2 µM); against Escherichia coli [6] it was 12.5 mg/L (≈ 30.2 µM); with Pseudomonas aeruginosa, 6.25 mg/L (≈ 15.1 µM); with Aspergillus flavus [2] it was 6.25 mg/L (≈ 15.1 µM). For the same compound, the MIC turned out to be 6.25 mg/L (≈ 15.1 µM) against Candida albicans, 12.5 mg/L (≈ 30.2 µM) in the test with Candida [3] and 6.25 mg/L (≈ 15.1 µM) with Candida [4].

Consider `COc1ccc(C2CC(=NN3C(=O)CNC3=S)CC(c3ccc(OC)cc3)N2)cc1` (configuration not stated), for which the MIC was 50 mg/L (≈ 118 µM) with Staphylococcus aureus [1]; 100 mg/L (≈ 236 µM) against Streptococcus; 100 mg/L (≈ 236 µM) in the test on Vibrio cholerae; 50 mg/L (≈ 118 µM) against Escherichia coli [6]; 100 mg/L (≈ 236 µM) against Pseudomonas aeruginosa; 12.5 mg/L (≈ 29.4 µM) against Aspergillus flavus [2]. The MIC with Candida albicans was 12.5 mg/L (≈ 29.4 µM); against Candida [3], 6.25 mg/L (≈ 14.7 µM). For the same compound, the MIC result with Candida [8] is “inactive”.

With `CC1(C)/C(=N/N2C(=O)CNC2=S)CC(c2ccc(Cl)cc2)NC1c1ccc(Cl)cc1` (configuration not stated), the MIC in the test on Staphylococcus aureus [1] is 25 mg/L (≈ 54.2 µM); against Streptococcus, 12.5 mg/L (≈ 27.1 µM); in the test with Vibrio cholerae it was 12.5 mg/L (≈ 27.1 µM); with Escherichia coli [6] it was 50 mg/L (≈ 108 µM); with Pseudomonas aeruginosa it was 25 mg/L (≈ 54.2 µM); against Aspergillus flavus [2], 25 mg/L (≈ 54.2 µM). The MIC against Candida albicans, against Candida [3] and against Candida [4] was 50 mg/L (≈ 108 µM) throughout.

Take `CC1(C)/C(=N/N2C(=O)CNC2=S)CC(c2ccccc2)NC1c1ccccc1` (configuration not stated): the MIC was determined as 100 mg/L (≈ 255 µM) in the test on Staphylococcus aureus [1]; 25 mg/L (≈ 63.7 µM) in the test on Streptococcus; 25 mg/L (≈ 63.7 µM) with Vibrio cholerae; 100 mg/L (≈ 255 µM) against Escherichia coli [6]; 100 mg/L (≈ 255 µM) in the test on Pseudomonas aeruginosa; 50 mg/L (≈ 127 µM) against Candida albicans. Moreover, the MIC is 100 mg/L (≈ 255 µM) against Candida [3] and 50 mg/L (≈ 127 µM) in the test with Candida [4]. In addition, in the test with Aspergillus flavus [9], the MIC result is “inactive”.

Consider `Cc1ccc(C2C/C(=N\N3C(=O)CNC3=S)C(C)C(c3ccc(C)cc3)N2)cc1` (configuration not stated), for which the MIC against Staphylococcus aureus [1] was 25 mg/L (≈ 61.5 µM); against Streptococcus, 50 mg/L (≈ 123 µM); against Vibrio cholerae it was 50 mg/L (≈ 123 µM); against Escherichia coli [6] it was 50 mg/L (≈ 123 µM); against Pseudomonas aeruginosa, 50 mg/L (≈ 123 µM); in the test on Aspergillus flavus [2], 12.5 mg/L (≈ 30.7 µM). The figures for the MIC in the test with Candida albicans, with Candida [3] and in the test on Candida [4] were 50 mg/L (≈ 123 µM), 6.25 mg/L (≈ 15.4 µM) and 12.5 mg/L (≈ 30.7 µM), respectively.

Turning to `COc1ccc(C2C/C(=N\N3C(=O)CNC3=S)C(C)C(c3ccc(OC)cc3)N2)cc1` (configuration not stated), the MIC against Staphylococcus aureus [1] amounted to 50 mg/L (≈ 114 µM); against Streptococcus it was 25 mg/L (≈ 57 µM); in the test on Vibrio cholerae it was 25 mg/L (≈ 57 µM); in the test on Escherichia coli [6] it was 100 mg/L (≈ 228 µM); with Pseudomonas aeruginosa, 25 mg/L (≈ 57 µM); against Aspergillus flavus [2], 12.5 mg/L (≈ 28.5 µM). Moreover, the values for the MIC with Candida albicans, in the test with Candida [3] and in the test on Candida [4] were 50 mg/L (≈ 114 µM), 12.5 mg/L (≈ 28.5 µM) and 12.5 mg/L (≈ 28.5 µM), respectively.

Take `CC1/C(=N/N2C(=O)CNC2=S)CC(c2ccccc2)NC1c1ccccc1` (configuration not stated): the MIC in the test with Staphylococcus aureus [1] is 200 mg/L (≈ 528 µM); with Streptococcus, 100 mg/L (≈ 264 µM); against Vibrio cholerae, 100 mg/L (≈ 264 µM); in the test with Escherichia coli [6], 50 mg/L (≈ 132 µM); in the test on Pseudomonas aeruginosa, 50 mg/L (≈ 132 µM); against Aspergillus flavus [2] it was 50 mg/L (≈ 132 µM). Besides, the MIC against Candida albicans, in the test on Candida [3] and in the test with Candida [4] was 50 mg/L (≈ 132 µM) throughout.

`CC1/C(=N/N2C(=O)CNC2=S)CC(c2ccc(Cl)cc2)NC1c1ccc(Cl)cc1` (configuration not stated): the MIC against Staphylococcus aureus [1] came out at 6.25 mg/L (≈ 14 µM); against Streptococcus it was 50 mg/L (≈ 112 µM); in the test with Vibrio cholerae it was 50 mg/L (≈ 112 µM); with Escherichia coli [6], 50 mg/L (≈ 112 µM); with Pseudomonas aeruginosa, 50 mg/L (≈ 112 µM); against Aspergillus flavus [2], 12.5 mg/L (≈ 27.9 µM). Moreover, the MIC in the test with Candida albicans came to 50 mg/L (≈ 112 µM); in the test with Candida [3] it was 50 mg/L (≈ 112 µM); with Candida [4], 12.5 mg/L (≈ 27.9 µM).

Turning to `Cc1ccc(C2C/C(=N\N3C(=O)CNC3=S)C(C)(C)C(c3ccc(C)cc3)N2)cc1` (configuration not stated), the minimal inhibitory concentration (MIC) in the test on Staphylococcus aureus [1] stood at 25 mg/L (≈ 59.4 µM); in the test with Streptococcus, 25 mg/L (≈ 59.4 µM); in the test with Vibrio cholerae it was 25 mg/L (≈ 59.4 µM); in the test with Escherichia coli [6] it was 50 mg/L (≈ 119 µM); with Pseudomonas aeruginosa, 100 mg/L (≈ 238 µM); against Aspergillus flavus [2], 25 mg/L (≈ 59.4 µM). Further, the MIC in the test on Candida albicans was 25 mg/L (≈ 59.4 µM); in the test with Candida [3], 6.25 mg/L (≈ 14.9 µM); with Candida [4] it was 12.5 mg/L (≈ 29.7 µM).

By MIC is commonly meant the lowest concentration found to suppress growth.
